Source: patent US20240027453A1, “METHOD FOR DETECTION AND QUANTITATIVE MONITORING OF INFECTIONS WITH HERPESVIRUSES” (The Trustees of Princeton University, priority 2020, published 2024)
pIC50: −log10 of the molar value.

How the values were obtained:
HCMV [1] = format: cell-based
Method: (§1) In example herpesvirus PRM assay methods shown herein, cell pellets were lysed in 2% SDS, 100 mM NaCl, 0.5 mM EDTA, 50 mM Tris, pH 8.2, and 50 μg of protein was reduced and alkylated with 25 mM TCEP and 50 mM CAM respectively for 20 min at 70° C. Proteins were then precipitated via methanol chloroform precipitation (Wessel & Flugg, Anal Biochem. 138(1):141-143, 1984), resuspended in 50 mM HEPES, pH 8.2 and digested overnight with trypsin (50:1 protein:enzyme w/w ratio). Digested peptides were desalted by SDB-RPS StageTip as previously described (Lum et al., Cell Syst., 7(6):[…], 2018; Greco et al., Methods Mol Biol 1410:39-63, 2016; Federspiel & Cristea, Methods Mol Biol., 1977:115-143, 2019).
(§2) Peptides (1.0 μg on column) were analyzed by LC-MS/MS using a Dionex Ultimate 3000 UHPLC coupled online to an EASYSpray ion source and a Q Exactive HF. Peptides were separated on an EASYSpray C18 column (75 μm×25 cm) heated to 50° C. using a linear gradient of 5% B to 32% B over 60 min at a flow rate of 250 nL/min and were ionized at 1.7 kv. Mobile phase A consisted of 0.1% FA in H2O and mobile phase B consisted of 0.1% FA, 2.9% H2O in ACN.
(§3) The PRM method was controlled by a peptide inclusion list with retention time windows of 6 min for selected precursor ions.
(§4) The PRM assay was developed and analyzed using the open-source software Skyline (Maclean et al., Bioinformatics 26(7):966-968, 2010). Summed area under the curve of 3-4 transitions per peptide was used for quantitation. Targeted peptides were normalized to host protein loading control peptides. Peptide values for each sample were scaled to the average of each peptide across all runs. The average of multiple peptides was used as the inferred value for the protein measurement when more than one peptide was quantified (Federspiel et al., PLoS Biol. 17(9):e3000437. Doi: 10.1371/journal.pbio.3000437). PRM quantitation data were graphed using the Python Seaborn and Matplotlib libraries.
(§5) MRC5 primary human fibroblasts (HFs) (ATCC CCL-171) were used as the model system for HSV-1 and HCMV infections and were cultured in complete growth medium (DMEM supplemented with 10% fetal bovine serum and 1% penicillin-streptomycin antibiotics) at 37° C. and 5% CO2. iSLK.219 cells harboring latent KSHV (a gift from Dr. Britt Glaunsinger, University of California, Berkeley) were grown in complete growth medium supplemented with 500 μg/ml hygromycin (ThermoFisher Scientific, 10687010) at 37° C. and 5% CO2. All cells were used for experiments within a maximum of 10 passages.
(§6) Wild type HSV-1 strain 17+ (a gift from Beate Sodeik, Hannover Medical School, Hannover, Germany) was propagated as previously described (Diner et al., 2015). Briefly, PO stocks were generated by electroporating pBAC-HSV-1 into U-2 OS cells. […] In a similar manner, wild type HCMV strain AD169 was produced from BAC electroporation into HFs and working stocks were propagated by infecting HFs at a low level. In both cases, cell-associated virus was released by sonication, combined with supernatant virus, then concentrated by ultracentrifugation (20,000 rpm, 2 hours, 4° C. with SW28 swinging bucket rotor [Beckman Coulter]) over a 10% ficoll (HSV-1) or 20% sorbitol (HCMV) cushion. Virus stock titers were determined by plaque assay for HSV-1 or tissue culture infectious dose (TCID50) for HCMV and infections were performed at a multiplicity of infection (MOI) of 3.
(§7) 12 hours prior to virus infection or reactivation, cells were treated with either the small molecule drug or DMSO/PBS control at an equivalent volume. […] For infection cycles lasting longer than 24 hours, small molecule drugs were re-added to the cell culture medium every 24 hours. Upon collection, cells were rinsed with PBS, scraped into a microcentrifuge tube, pelleted by centrifugation, and rinsed again with PBS.

HSV-1 [2] = test: TRUSTED PRM assay of HSV-1 viral protein levels after small molecule treatment; format: cell-based; settings: for DBP (P04296) protein level / TK (P03176) protein level / UL8 (P10192) protein level / UL12 (P04294) protein level / UL30 (P04293) protein level / UL42 (P10226) protein level / US3 (P04413) protein level: E; for DBP (P04296) protein level / TK (P03176) protein level / UL8 (P10192) protein level / UL12 (P04294) protein level / UL30 (P04293) protein level / UL42 (P10226) protein level / US3 (P04413) protein level / ICP0 (P08393) protein level / ICP4 (P08392) protein level / ICP22 (P04485) protein level / UL54 (P10238) protein level / CVC2 (P10209) protein level / UL26 (P10210) protein level / UL48 (P06492) protein level / UL49 (P10233) protein level / gB (P10211) protein level / gI (P06487) protein level: FIG. 8A; for ICP0 (P08393) protein level / ICP4 (P08392) protein level / ICP22 (P04485) protein level / UL54 (P10238) protein level: IE; for CVC2 (P10209) protein level / UL26 (P10210) protein level / UL48 (P06492) protein level / UL49 (P10233) protein level / gB (P10211) protein level / gI (P06487) protein level: L
Method: as §1, §2, §3, §4, §5, §6, §7

HCMV [3] = settings: cited from earlier work
iSLK.219 cell line = test: Toxicity to the iSLK.219 cell line; format: cell-based; settings: 50 μM
HSV-1 [4] = settings: in MRC5 cells; cited from earlier work
[5] = 1 μM, by and after 12 HPI, vs DMSO

Structure (SMILES): Oc1ccc(/C=C/c2cc(O)cc(O)c2)cc1 [trans-Resveratrol]
- HCMV UL122 (IE2) and UL123 (IE1) levels (HCMV [1]): decreases
- HCMV UL123 levels (HCMV [1]; 24 HPI, […] CAY10602, 50 μM trans-Resveratrol): unchanged
- HCMV UL26 levels (HCMV [1]; 48 HPI, […] CAY10602, 50 μM trans-Resveratrol): decreased
- HCMV viral protein production (HCMV [1]; by 48 HPI): global reduction
- HCMV UL99 levels (HCMV [1]; by 72 HPI, […] CAY10602, 50 μM trans-Resveratrol): robustly decreased
- global decrease in HCMV viral protein levels (HCMV [1]; by 120 HPI, […] CAY10602, 50 μM trans-Resveratrol): ~70%
- levels of HSV-1 viral transactivators ICP4 and UL48 (VP16) (HSV-1 [2]; 10 μM EX-527, 50 μM trans-Resveratrol): downregulated
- decrease in HSV-1 protein levels (HSV-1 [2]; 50 μM): 30-40%
- decrease in HCMV titers (HCMV [3]; […] CAY10602, 50 μM trans-Resveratrol): ~50%
- HCMV titers (HCMV [3]): decreased
- toxicity to the iSLK.219 cell line (iSLK.219 cell line): toxic

Structure (SMILES): Nc1nc2c(ncn2COCCO)c(=O)[nH]1 [ACV, acyclovir]
- pIC50 (HSV-1 [4]): 5.52 to 5.70
- HSV-1 late gene expression (HSV-1 [2]): reduction
- effect on IE HSV-1 protein levels (HSV-1 [2]; 1 μM): little effect
- levels of HSV-1 proteins DBP, UL42, UL30, UL8, UL12 and UL48 (HSV-1 [2]; 1 μM): significant reduction
- decrease in levels of E HSV-1 proteins (HSV-1 [2]; [5]): ~20%
- decrease in levels of L HSV-1 proteins (HSV-1 [2]; [5]): ~35%
- expression of IE and E HSV-1 genes (HSV-1 [2]; 6 HPI): increase

Structure (SMILES): Oc1ccc(/C=C/c2cc(O)cc(O)c2)cc1 [Res]
- DBP (P04296) protein level (HSV-1 [2]; timepoint 2): 0.02121
- TK (P03176) protein level (HSV-1 [2]; timepoint 2): 0.03832
- UL8 (P10192) protein level (HSV-1 [2]; timepoint 2): 0.0171
- UL12 (P04294) protein level (HSV-1 [2]; timepoint 2): 0.01763
- UL30 (P04293) protein level (HSV-1 [2]; timepoint 2): 0.03876
- UL42 (P10226) protein level (HSV-1 [2]; timepoint 2): 0.003041
- US3 (P04413) protein level (HSV-1 [2]; timepoint 2): 0.01605
- ICP0 (P08393) protein level (HSV-1 [2]; timepoint 2): 0.1622
- ICP4 (P08392) protein level (HSV-1 [2]; timepoint 2): 0.1073
- ICP22 (P04485) protein level (HSV-1 [2]; timepoint 2): 0.015
- UL54 (P10238) protein level (HSV-1 [2]; timepoint 2): 0.0667
- CVC2 (P10209) protein level (HSV-1 [2]; timepoint 2): 0.01003
- UL26 (P10210) protein level (HSV-1 [2]; timepoint 2): 0.003453
- UL48 (P06492) protein level (HSV-1 [2]; timepoint 2): 0.007183
- UL49 (P10233) protein level (HSV-1 [2]; timepoint 2): 0.009894
- gB (P10211) protein level (HSV-1 [2]; timepoint 2): 0.0128
- gI (P06487) protein level (HSV-1 [2]; timepoint 2): 0.00718
- DBP (P04296) protein level (HSV-1 [2]; timepoint 6): 0.9121
- TK (P03176) protein level (HSV-1 [2]; timepoint 6): 0.9707
- UL8 (P10192) protein level (HSV-1 [2]; timepoint 6): 1.056
- UL12 (P04294) protein level (HSV-1 [2]; timepoint 6): 0.7418
- UL30 (P04293) protein level (HSV-1 [2]; timepoint 6): 1.353
- UL42 (P10226) protein level (HSV-1 [2]; timepoint 6): 0.2866
- US3 (P04413) protein level (HSV-1 [2]; timepoint 6): 0.616
- ICP0 (P08393) protein level (HSV-1 [2]; timepoint 6): 0.5333
- ICP4 (P08392) protein level (HSV-1 [2]; timepoint 6): 1.063
- ICP22 (P04485) protein level (HSV-1 [2]; timepoint 6): 0.7429
- UL54 (P10238) protein level (HSV-1 [2]; timepoint 6): 0.9415
- CVC2 (P10209) protein level (HSV-1 [2]; timepoint 6): 0.2592
- UL26 (P10210) protein level (HSV-1 [2]; timepoint 6): 0.1986
- UL48 (P06492) protein level (HSV-1 [2]; timepoint 6): 0.1816
- UL49 (P10233) protein level (HSV-1 [2]; timepoint 6): 0.428
- gB (P10211) protein level (HSV-1 [2]; timepoint 6): 0.5098
- gI (P06487) protein level (HSV-1 [2]; timepoint 6): 0.5705
- TK (P03176) protein level (HSV-1 [2]; timepoint 12): 1.24
- UL8 (P10192) protein level (HSV-1 [2]; timepoint 12): 0.9123
- UL12 (P04294) protein level (HSV-1 [2]; timepoint 12): 0.8878
- UL30 (P04293) protein level (HSV-1 [2]; timepoint 12): 1.001
- UL42 (P10226) protein level (HSV-1 [2]; timepoint 12): 0.7743
- US3 (P04413) protein level (HSV-1 [2]; timepoint 12): 1.156
- ICP0 (P08393) protein level (HSV-1 [2]; timepoint 12): 1.108
- ICP4 (P08392) protein level (HSV-1 [2]; timepoint 12): 1.101
- ICP22 (P04485) protein level (HSV-1 [2]; timepoint 12): 1.241
- UL54 (P10238) protein level (HSV-1 [2]; timepoint 12): 1.026
- CVC2 (P10209) protein level (HSV-1 [2]; timepoint 12): 0.7067
- UL26 (P10210) protein level (HSV-1 [2]; timepoint 12): 0.7549
- UL48 (P06492) protein level (HSV-1 [2]; timepoint 12): 0.8411
- UL49 (P10233) protein level (HSV-1 [2]; timepoint 12): 1.283
- gB (P10211) protein level (HSV-1 [2]; timepoint 12): 1.286
- gI (P06487) protein level (HSV-1 [2]; timepoint 12): 0.956
- TK (P03176) protein level (HSV-1 [2]; timepoint 18): 0.9806
- UL8 (P10192) protein level (HSV-1 [2]; timepoint 18): 0.8259
- UL12 (P04294) protein level (HSV-1 [2]; timepoint 18): 0.7425
- UL30 (P04293) protein level (HSV-1 [2]; timepoint 18): 0.7926
- UL42 (P10226) protein level (HSV-1 [2]; timepoint 18): 0.7837
- US3 (P04413) protein level (HSV-1 [2]; timepoint 18): 0.9457
- ICP0 (P08393) protein level (HSV-1 [2]; timepoint 18): 1.159
- ICP4 (P08392) protein level (HSV-1 [2]; timepoint 18): 1.049
- ICP22 (P04485) protein level (HSV-1 [2]; timepoint 18): 1.213
- UL54 (P10238) protein level (HSV-1 [2]; timepoint 18): 0.8148
- CVC2 (P10209) protein level (HSV-1 [2]; timepoint 18): 0.601
- UL26 (P10210) protein level (HSV-1 [2]; timepoint 18): 0.8898
- UL48 (P06492) protein level (HSV-1 [2]; timepoint 18): 0.9275
- gB (P10211) protein level (HSV-1 [2]; timepoint 18): 1.306
- gI (P06487) protein level (HSV-1 [2]; timepoint 18): 1.003
